According to patent US20240342117A1, “Inhalable Epinephrine Formulation” (De Motu Cordis Pty Ltd, priority 2022, published 2024):

Conditions: over 4 weeks of storage

- tendency to agglomerate: naturally tends to agglomerate
SMILES: CNC[C@H](O)c1ccc(O)c(O)c1 [micronized epinephrine bitartrate, epinephrine bitartrate]
